Among the data in US20230357239A1, “PYRIDO[2,3-D]PYRIMIDIN-4-AMINES AS SOS1 INHIBITORS” (Bayer Aktiengesellschaft, priority 2020, published 2023) are IC50 values, retold here.

Sequence of human SOS1 (SOS1) with human K-RasG12C (Q07889 564-1049): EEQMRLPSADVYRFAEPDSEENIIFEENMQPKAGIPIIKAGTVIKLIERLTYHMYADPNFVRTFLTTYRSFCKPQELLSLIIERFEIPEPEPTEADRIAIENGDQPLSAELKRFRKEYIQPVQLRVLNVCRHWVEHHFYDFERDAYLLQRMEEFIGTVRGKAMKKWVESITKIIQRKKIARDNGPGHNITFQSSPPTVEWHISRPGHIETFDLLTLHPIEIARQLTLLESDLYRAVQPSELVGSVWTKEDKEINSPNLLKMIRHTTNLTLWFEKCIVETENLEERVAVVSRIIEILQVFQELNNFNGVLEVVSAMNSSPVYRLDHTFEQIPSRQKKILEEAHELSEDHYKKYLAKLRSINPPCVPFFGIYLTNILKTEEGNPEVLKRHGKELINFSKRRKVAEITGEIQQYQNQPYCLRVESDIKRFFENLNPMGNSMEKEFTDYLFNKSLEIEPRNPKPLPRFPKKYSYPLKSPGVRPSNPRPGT

The target of the assay is human SOS1 (SOS1) with human K-RasG12C (Homo sapiens (Human), UniProt Q07889). In words: hK-RasG12C interaction assay with hSOS1 (HTRF). Type of assay: binding. The conditions noted are these: GST-hK-RasG12C and His-hSOS1, 60 min incubation at 20° C, mean, read-out: K-RasG12C - SOS interaction assay IC50 - [mol/l] (mean). The method, then:
Biochemical Assay: hK-RasG12C Interaction Assay with hSOS1
This assay quantifies the equilibrium interaction of human SOS1 (SOS1) with human K-Ras^G12C (K-RasG12C). Detection of the interaction is achieved by measuring homogenous time-resolved fluorescence resonance energy transfer (HTRF) from antiGST-Europium (FRET donor) bound to GST-K-RasG12C to anti-6His-XL665 bound to His-tagged hSOS1 (FRET-acceptor).
The assay buffer containes 5 mM HEPES pH 7.4 (Applichem), 150 mM NaCl (Sigma), 10 mM EDTA (Promega), 1 mM DTT (Thermofisher), 0.05% BSA Fraction V, pH 7.0, (ICN Biomedicals), 0.0025% (v/v) Igepal (Sigma) and 100 mM KF (FLUKA).
Concentrations of protein batches used are optimized to be within the linear range of the HTRF signal. A Ras working solution is prepared in assay buffer containing typically 10 nM GST-hK-RasG12C and 2 nM antiGST-Eu(K) (Cisbio, France). A SOS1 working solution is prepared in assay buffer containing typically 20 nM His-hSOS1 and 10 nM anti-6His-XL665 (Cisbio, France). An inhibitor control solution is prepared in assay buffer containing 10 nM anti-6His-XL665 without SOS1.
Fifty nl of a 100-fold concentrated solution of the test compound in DMSO are transferred into a black microtiter test plate (384 or 1536, Greiner Bio-One, Germany).
For this, either a Hummingbird liquid handler (Digilab, MA, USA) or an Echo acoustic system (Labcyte, CA, USA) is used.
All steps of the assay are performed at 20° C. A volume of 2.5 μl of the Ras working solution is added to all wells of the test plate using a Multidrop dispenser (Thermo Labsystems). After 2 min preincubation, 2.5 μl of the SOS1 working solution are added to all wells except for those wells at the side of the test plate that are subsequently filled with 2.5 μl of the inhibitor control solution. After 60 min incubation the fluorescence is measured with a Pherastar (BMG, Germany) using the HTRF module (excitation 337 nm, emission 1: 620 nm, emission 2: 665 nm).
The ratiometric data (emission 2 divided by emission 1) are normalized using the controls (DMSO=0% inhibition, inhibition control wells with inhibitor control solution=100% inhibition). […] IC50 values are calculated by 4-Parameter fitting using a commercial software package (Genedata Screener, Switzerland).
A general note: In TR-FRET formats the signal depends on donor and acceptor labels being close together.
Regarding `COc1nc2nc(C)nc(N[C@H](C)c3cccc(C(F)(F)F)c3C)c2cc1N1CC2(CN(C(C)=O)C2)C1` [Example 20, 1-{6-[7-methoxy-2-methyl-4-({(1R)-1-[2-methyl-3-(trifluoromethyl)phenyl]ethyl}amino)pyrido[2,3-d]pyrimidin-6-yl]-2,6-diazaspiro[3.3]heptan-2-yl}ethan-1-one], the IC50 was 348 nM.

On to `CC(=O)N1CC2(C1)CN(c1cc3c(N[C@H](C)c4cccc(C(F)(F)F)c4C)nc(C)nc3nc1C(F)(F)F)C2` [Example 71, 1-{6-[2-methyl-4-({(1R)-1-[2-methyl-3-(trifluoromethyl)phenyl]ethyl}amino)-7-(trifluoromethyl)pyrido[2,3-d]pyrimidin-6-yl]-2,6-diazaspiro[3.3]heptan-2-yl}ethan-1-one], for which the IC50 came out at 5.78 nM.

On to `COc1nc2nc(C)nc(N[C@H](C)c3cccc(C(F)(F)F)c3C)c2cc1C1CCN(C(C)=O)CC1` [Example 22, 1-{4-[7-methoxy-2-methyl-4-({(1R)-1-[2-methyl-3-(trifluoromethyl)phenyl]ethyl}amino)pyrido[2,3-d]pyrimidin-6-yl]piperidin-1-yl}ethan-1-one], for which the IC50 stood at 805 nM.

Consider `COc1nc2nc(C)nc(N[C@H](C)c3cccc(C(F)(F)F)c3C)c2cc1C1=CCN(C(C)=O)CC1` [Example 21, 1-{4-[7-methoxy-2-methyl-4-({(1R)-1-[2-methyl-3-(trifluoromethyl)phenyl]ethyl}amino)pyrido[2,3-d]pyrimidin-6-yl]-3,6-dihydropyridin-1(2H)-yl}ethan-1-one], for which the IC50 was 949 nM.

Regarding `CC(=O)N1CC2(CCC(c3cnc4nc(C)nc(N[C@H](C)c5cccc(C(F)(F)F)c5C)c4c3)CC2)C1` [Example 28, 1-{7-[2-methyl-4-({(1R)-1-[2-methyl-3-(trifluoromethyl)phenyl]ethyl}amino)pyrido[2,3-d]pyrimidin-6-yl]-2-azaspiro[3.5]nonan-2-yl}ethan-1-one], the IC50 is 9.4 nM.

In the case of `CC(=O)N1CC=C(c2cc3c(N[C@H](C)c4cccc(C(F)(F)C(C)(C)O)c4F)nc(C)nc3nc2C)CC1` [Example 65, 1-{4-[4-({(1R)-1-[3-(1,1-difluoro-2-hydroxy-2-methylpropyl)-2-fluorophenyl]ethyl}amino)-2,7-dimethylpyrido[2,3-d]pyrimidin-6-yl]-3,6-dihydropyridin-1(2H)-yl}ethan-1-one], the IC50 amounted to 5.72 nM.

Regarding `CC(=O)N1CCN(c2cnc3nc(C)nc(N[C@H](C)c4cccc(C(F)(F)F)c4C)c3c2)CC1` [Example 35, 1-{4-[2-methyl-4-({(1R)-1-[2-methyl-3-(trifluoromethyl)phenyl]ethyl}amino)pyrido[2,3-d]pyrimidin-6-yl]piperazin-1-yl}ethan-1-one], the IC50 is 7.71 nM.

As for `CC(=O)N1CCC(c2cc3c(N[C@H](C)c4cccc(C(F)(F)F)c4C)nc(C)nc3nc2C(F)(F)F)CC1` [Example 42, 1-{4-[2-methyl-4-({(1R)-1-[2-methyl-3-(trifluoromethyl)phenyl]ethyl}amino)-7-(trifluoromethyl)pyrido[2,3-d]pyrimidin-6-yl]piperidin-1-yl}ethan-1-one], the IC50 was found to be 28.9 nM.

With `Cc1nc(N[C@H](C)c2cccc(C(F)(F)F)c2C)c2cc(N3CC4(CN(C(=O)OC(C)(C)C)C4)C3)cnc2n1` [Example 7, tert-butyl 6-[2-methyl-4-({(1R)-1-[2-methyl-3-(trifluoromethyl)phenyl]ethyl}amino)pyrido[2,3-d]pyrimidin-6-yl]-2,6-diazaspiro[3.3]heptane-2-carboxylate], the IC50 was determined as 180 nM.

Turning to `CC(=O)N1CC=C(c2cnc3nc(C)nc(N[C@H](C)c4cccc(C(F)(F)C(C)(C)O)c4F)c3c2)CC1` [Example 46, 1-{4-[4-({(1R)-1-[3-(1,1-difluoro-2-hydroxy-2-methylpropyl)-2-fluorophenyl]ethyl}amino)-2-methylpyrido[2,3-d]pyrimidin-6-yl]-3,6-dihydropyridin-1(2H)-yl}ethan-1-one], the IC50 was 2.7 nM.

Take `COc1nc2nc(C)nc(N[C@H](C)c3cccc(C(F)(F)F)c3C)c2cc1N1CCCS1(=O)=O` [Example 23, 2-[7-methoxy-2-methyl-4-({(1R)-1-[2-methyl-3-(trifluoromethyl)phenyl]ethyl}amino)pyrido[2,3-d]pyrimidin-6-yl]-1 lambda^6,2-thiazolidine-1,1-dione]: the IC50 stood at 2640 nM.

`CC(=O)N1CC2(C1)CN(c1cc3c(N[C@H](C)c4cccc(C(F)(F)F)c4C)nc(C)nc3nc1C)C2` [Example 63, 1-{6-[2,7-dimethyl-4-({(1R)-1-[2-methyl-3-(trifluoromethyl)phenyl]ethyl}amino)pyrido[2,3-d]pyrimidin-6-yl]-2,6-diazaspiro[3.3]heptan-2-yl}ethan-1-one]: the IC50 worked out at 8.66 nM.

In the case of `Cc1nc(N[C@H](C)c2cccc(C(F)(F)C(C)(C)O)c2F)c2cc(N3CCCS3(=O)=O)c(C)nc2n1` [Example 59, 2-[4-({(1R)-1-[3-(1,1-difluoro-2-hydroxy-2-methylpropyl)-2-fluorophenyl]ethyl}amino)-2,7-dimethylpyrido[2,3-d]pyrimidin-6-yl]-1 lambda^6,2-thiazolidine-1,1-dione], the IC50 turned out to be 7.23 nM.

For `CC(=O)N1CCN(c2cc3c(N[C@H](C)c4cccc(C(F)(F)C(C)(C)O)c4F)nc(C)nc3nc2C)CC1` [Example 67, 1-{4-[4-({(1R)-1-[3-(1,1-difluoro-2-hydroxy-2-methylpropyl)-2-fluorophenyl]ethyl}amino)-2,7-dimethylpyrido[2,3-d]pyrimidin-6-yl]piperazin-1-yl}ethan-1-one], the IC50 turned out to be 6.23 nM.

On to `CC(=O)N1CCN(c2cnc3nc(C)nc(N[C@H](C)c4cccc(C(F)(F)F)c4C)c3c2)C(=O)C1` [Example 61, 4-acetyl-1-[2-methyl-4-({(1R)-1-[2-methyl-3-(trifluoromethyl)phenyl]ethyl}amino)pyrido[2,3-d]pyrimidin-6-yl]piperazin-2-one], for which the IC50 is 2.53 nM.

Take `CC(=O)N1CC2(C1)CN(c1cc3c(N[C@H](C)c4cccc(C(F)(F)CO)c4F)nc(C)nc3nc1C(F)(F)F)C2` [Example 24, 1-{6-[4-({(1R)-1-[3-(1,1-difluoro-2-hydroxyethyl)-2-fluorophenyl]ethyl}amino)-2-methyl-7-(trifluoromethyl)pyrido[2,3-d]pyrimidin-6-yl]-2,6-diazaspiro[3.3]heptan-2-yl}ethan-1-one]: the IC50 amounted to 2.8 nM.

Take `CC(=O)N1CCN(c2cnc3ncnc(N[C@H](C)c4cccc(C(F)(F)F)c4)c3c2)CC1` [Example 4, 1-{4-[4-({(1R)-1-[3-(trifluoromethyl)phenyl]ethyl}amino)pyrido[2,3-d]pyrimidin-6-yl]piperazin-1-yl}ethan-1-one]: the IC50 was 16.3 nM.

For the molecule `CC(=O)N[C@@H]1CCN(c2cnc3ncnc(N[C@H](C)c4cccc(C(F)(F)F)c4)c3c2)C1` [Example 2, N-{(3R)-1-[4-({(1R)-1-[3-(trifluoromethyl)phenyl]ethyl}amino)pyrido[2,3-d]pyrimidin-6-yl]pyrrolidin-3-yl}acetamide], the IC50 came out at 34 nM.

`CC(=O)N1CC2(C1)CN(c1cnc3nc(C)nc(N[C@H](C)c4cccc(C(F)F)c4F)c3c1)C2` [Example 29, 1-{6-[4-({(1R)-1-[3-(difluoromethyl)-2-fluorophenyl]ethyl}amino)-2-methylpyrido[2,3-d]pyrimidin-6-yl]-2,6-diazaspiro[3.3]heptan-2-yl}ethan-1-one]: the IC50 was 25.6 nM.
